Reference: ChEMBL document CHEMBL2434919, “Synthesis, cytotoxicity, and DNA-binding property of berberine derivatives” (Med Chem Res, 2013)
Calls of active or inactive are those of the source. No cut-off for these calls is given here.

Columns and labels:
DNA [1] = test: Binding affinity to calf thymus DNA assessed as conformational changes in DNA morphology at […] after 2 hrs by circular dichroism analysis; format: nucleic-acid assay; details: Bos taurus
DNA [2] = test: Binding affinity to calf thymus DNA assessed as intercalation after 2 hrs by Stern-Volmer plot relative to control; format: nucleic-acid assay; details: Bos taurus
DNA [3] = test: Binding affinity to calf thymus DNA assessed as hypochromicity at 20 uM after 2 hrs by UV-Vis absorption titration analysis; format: nucleic-acid assay; details: Bos taurus
DNA [4] = test: Binding affinity to calf thymus DNA assessed as intercalation after 2 hrs by UV-Vis absorption titration analysis; format: nucleic-acid assay; details: Bos taurus
KB = test: Cytotoxicity against human KB cells after 48 hrs by MTT assay; format: functional, cell-based
Bel-7402 = test: Cytotoxicity against human Bel7402 cells after 48 hrs by MTT assay; format: functional, cell-based; details: Bel-7402, 48 h
BGC-823 = test: Cytotoxicity against human BGC823 cells after 48 hrs by MTT assay; format: functional, cell-based; details: BGC-823, 48 h
HL-60 = test: Cytotoxicity against human HL60 cells after 48 hrs by MTT assay; format: functional, cell-based; details: HL-60, 48 h
DNA [5] = test: Binding affinity to calf thymus DNA assessed as change in melting temperature at 100 uM by spectroscopic analysis; format: nucleic-acid assay; details: Bos taurus

| SMILES | Activity (DNA [1]) | KSV (DNA [2]) | Activity (DNA [3]) | K (DNA [4]) | IC50 (KB) | IC50 (Bel-7402) | IC50 (BGC-823) | IC50 (HL-60) | ΔTm (DNA [5]) |
| --- | --- | --- | --- | --- | --- | --- | --- | --- | --- |
| COc1ccc2cc3[n+](cc2c1OCCOCCN1CCOCC1)CCc1cc2c(cc1-3)OCO2 | Active | 1.82 ×10⁵ /M | 21% | 6.32 ×10⁶ /M | 9.93 µM | 9.44 µM | 11.9 µM | 16.4 µM | 1.7 °C |
| COc1ccc2cc3[n+](cc2c1OCCOCCN1CCCCC1)CCc1cc2c(cc1-3)OCO2 | Active | 8.01 ×10⁴ /M | 19% | 1.49 ×10⁶ /M | 19.7 µM | 17.9 µM | 22.2 µM | 46.8 µM | 1.5 °C |
| COc1ccc2cc3[n+](cc2c1OCCN1CCOCC1)CCc1cc2c(cc1-3)OCO2 | Active | 1.27 ×10⁵ /M | 17% | 3.55 ×10⁸ /M | 5.46 µM | 11.6 µM | 2.82 µM | 2.71 µM | 1.4 °C |
| COc1ccc2cc3[n+](cc2c1OCCN1CCCCC1)CCc1cc2c(cc1-3)OCO2 | Active | 7.09 ×10⁴ /M | 21% | 1.27 ×10⁸ /M | 17.1 µM | 27.5 µM | 10.2 µM | 6.51 µM | 2.2 °C |
| COc1ccc2cc3[n+](cc2c1O)CCc1cc2c(cc1-3)OCO2 [BERBERRUBINE CHLORIDE] |  |  |  |  | 6.92 µM | 34.3 µM | 7.66 µM | 11.4 µM |  |
| COc1ccc2cc3[n+](cc2c1OCCOCCOCCN1CCOCC1)CCc1cc2c(cc1-3)OCO2 | Active | 1.79 ×10⁵ /M | 25% | 3.45 ×10⁵ /M | 10 µM | 9.66 µM | 10.8 µM | 14.8 µM | 1.2 °C |
| COc1ccc2cc3[n+](cc2c1OCCOCCOCCN1CCCCC1)CCc1cc2c(cc1-3)OCO2 | Active | 1.01 ×10⁵ /M | 21% | 1.86 ×10⁵ /M | 33.9 µM | 33.4 µM | 20.6 µM | 45.8 µM | 1.3 °C |
| COc1ccc2cc3[n+](cc2c1OC)CCc1cc2c(cc1-3)OCO2 [BERBERINE CHLORIDE] |  |  |  |  | 6.03 µM | 16.3 µM | 7.04 µM | 5.83 µM |  |
